{
  "source": "paper PMC9549030",
  "about": "“Structural basis for specific inhibition of the deubiquitinase UCHL1” (Nature Communications, 2022)",
  "key": {"UCHL1 in HEK293 cells": {"system": "T1, UCHL1 in HEK293 cells", "T1 construct": "Western blot analysis of endogenous UCHL1 labeled with HA-Ub-VS after treatment of HEK293 cells; endogenous in cells; host or cells: HEK293", "test": "Cellular Ub-probe (HA-Ub-VS) competition, inhibition of cellular UCHL1", "assay_type": "cell-based, human", "conditions": "HEK293 cells", "method": "(§1) Proteins were transferred to a polyvinylidene fluoride (PVDF, only experiments in Fig. 4e and Supplementary Fig. 7e, f) or nitrocellulose (all other experiments) membrane using a Trans-Blot Turbo system (Bio-Rad, 1.3 A, 25 V, 10 min). The membranes were blocked with 5% (m/v) nonfat milk in PBS-T buffer and incubated with indicated primary antibodies (anti-UCHL1, 1:1000, Cell Signaling, D3T2E; anti-PARK7, 1:1000, Cell Signaling, D29E5; anti-Tubulin, 1:4000, Sigma, T6199; anti-Hemagglutinin, 1:1000, BioLegend, 16B12; anti-flag, 1:2000, Sigma, F3165; anti-Ubiquitin, 1:1000, Cell Signaling, P4D1; anti-Ubiquitin, 1:300, Santa Cruz, P4D1, sc-8017; anti-UCHL3, 1:1000, Proteintech, 12384-1-AP) overnight. Then the membranes were incubated with the respective secondary antibody (anti-mouse,1:5000, Sigma, NXA931; anti-rabbit, 1:5000, Sigma, GENA934) coupled to horseradish peroxidase. The chemiluminescent reaction was initiated using a Clarity Western ECL substrate (Bio-Rad) and images were taken on a ChemiDoc MP Imaging System (Bio-Rad).\n(§2) The total protein concentration was adjusted to 2 mg/ml by diluting each sample with ABP lysis buffer. A final concentration of 1 µM HA-Ub-VS probe was added, followed by incubation for 30 min at 37 °C. The labeling reaction was quenched by the addition of 4x LDS sample buffer. The samples were separated via SDS-PAGE and further analyzed via western blotting as described above."}, "UCHL1 in U-87 MG cells": {"system": "T2, UCHL1 in U-87 MG cells", "T2 construct": "Western blot analysis of endogenous UCHL1 labeled with HA-Ub-VS after treatment of U-87 MG cells; endogenous in cells; host or cells: U-87 MG", "test": "Cellular Ub-probe (HA-Ub-VS) competition, inhibition of cellular UCHL1", "assay_type": "cell-based, human", "conditions": "1 or 24 h", "method": "as §1, §2"}, "UCHL1": {"target": "T3, UCHL1 (Homo sapiens, UniProt P09936)", "T3 sequence (P09936 1-223)": "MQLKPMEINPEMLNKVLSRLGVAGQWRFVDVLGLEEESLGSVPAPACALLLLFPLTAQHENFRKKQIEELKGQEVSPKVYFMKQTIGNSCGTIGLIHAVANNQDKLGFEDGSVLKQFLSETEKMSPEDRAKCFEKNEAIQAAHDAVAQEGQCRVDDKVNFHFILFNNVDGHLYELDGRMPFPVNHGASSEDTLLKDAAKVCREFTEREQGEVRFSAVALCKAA", "test": "Jump-dilution assay", "assay_type": "biochemical", "conditions": "625 nM GK13S 2 h, then diluted 100-fold", "method": "Reactions were performed in similar 384 plates as above in a final volume of 20 µL. […] Parts of this solution were diluted at 1:50 at different time points with buffer H. All samples were then diluted 1:2 with 100 nM Ub-Rho (buffer H, final concentration in well 50 nM) and fluorescence was recorded as described above."}},
  "data": [
    {"smiles": "C#CCCCNC(=O)c1ccc(-n2cnc(NC(=O)[C@H]3CCN(C#N)C3)c2)cc1", "note": "[GK13S]", "values": [
      {"measurement": "inhibition of cellular UCHL1", "setting": "UCHL1 in HEK293 cells; 1 µM, 24 h", "result": "near complete inhibition"},
      {"measurement": "inhibition of cellular UCHL1", "setting": "UCHL1 in HEK293 cells; 5 µM, 24 h", "result": "Full inhibition"},
      {"measurement": "inhibition of cellular UCHL1", "setting": "UCHL1 in HEK293 cells; 1 and 5 µM, 1 h and 24 h (Supplementary Fig. 5f)", "result": "time- and concentration-dependent inhibition"},
      {"measurement": "inhibition of cellular UCHL1", "setting": "UCHL1 in U-87 MG cells", "result": "complete inhibition"},
      {"measurement": "reversibility of inhibition after jump dilution", "setting": "UCHL1", "result": "inhibition was sustained"}
    ]}
  ]
}
